The target of assay [1] is T1, Dipeptidase 1 (Sus scrofa) (UniProt P22412).
T1 sequence (whole entry): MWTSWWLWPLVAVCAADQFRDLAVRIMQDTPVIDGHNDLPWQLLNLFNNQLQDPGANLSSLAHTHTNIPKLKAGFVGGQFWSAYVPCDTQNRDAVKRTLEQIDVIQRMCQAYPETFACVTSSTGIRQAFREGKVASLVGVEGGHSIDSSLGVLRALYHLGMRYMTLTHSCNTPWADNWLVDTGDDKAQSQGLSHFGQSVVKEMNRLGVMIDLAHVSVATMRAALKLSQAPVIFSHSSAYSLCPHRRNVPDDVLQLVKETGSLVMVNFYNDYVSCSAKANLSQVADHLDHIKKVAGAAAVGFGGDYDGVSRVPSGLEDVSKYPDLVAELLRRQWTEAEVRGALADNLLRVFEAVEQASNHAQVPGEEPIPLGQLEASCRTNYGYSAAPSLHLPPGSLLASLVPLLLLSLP
Briefly: Susceptibility relative to imipenem was measured against Swine renal Dehydropeptidase-1.

For a further assay, the system named is Pseudomonas aeruginosa. Briefly: Compound was tested for its minimal inhibitory concentration against Pseudomonas aeruginosa 26. Format: functional.
Assay [2] concerns Dipeptidase 1 (Canis lupus familiaris). The experiment in a line: Susceptibility relative to meropenem was measured against dog Dehydropeptidase-1.
The next assay deals with Escherichia coli. Briefly: Compound was tested for its minimal inhibitory concentration against Escherichia coli NIHJ JC-2. Format: functional.
For another assay, the system named is Proteus vulgaris. Briefly: Compound was tested for its minimal inhibitory concentration against Proteus vulgaris IAM 1025. In kind it is functional.
Assay [3] concerns Staphylococcus aureus. The experiment in a line: Compound was tested for its minimal inhibitory concentration against Staphylococcus aureus 3004 (Methicillin resistant S. aureus). Format: functional.
Assay [4] has as its target Dipeptidase 1 (Rattus norvegicus) (UniProt P31430). The experiment in a line: Susceptibility relative to meropenem was measured against rat Dehydropeptidase-1.
The species named for assay [5] is Mus musculus. The experiment in a line: Susceptibility relative to meropenem was measured against mouse DHP-1.
Assay [6] relates to Staphylococcus aureus. Briefly: Compound was tested for its minimal inhibitory concentration against Staphylococcus aureus 209 JC-1. In kind it is functional.
Assay [7] deals with Dipeptidase 1 (Homo sapiens) (UniProt P16444). The experiment in a line: Susceptibility relative to meropenem was measured against human Dehydropeptidase-1.
Dipeptidase 1 (Homo sapiens), sequence (P16444 whole entry, looked up): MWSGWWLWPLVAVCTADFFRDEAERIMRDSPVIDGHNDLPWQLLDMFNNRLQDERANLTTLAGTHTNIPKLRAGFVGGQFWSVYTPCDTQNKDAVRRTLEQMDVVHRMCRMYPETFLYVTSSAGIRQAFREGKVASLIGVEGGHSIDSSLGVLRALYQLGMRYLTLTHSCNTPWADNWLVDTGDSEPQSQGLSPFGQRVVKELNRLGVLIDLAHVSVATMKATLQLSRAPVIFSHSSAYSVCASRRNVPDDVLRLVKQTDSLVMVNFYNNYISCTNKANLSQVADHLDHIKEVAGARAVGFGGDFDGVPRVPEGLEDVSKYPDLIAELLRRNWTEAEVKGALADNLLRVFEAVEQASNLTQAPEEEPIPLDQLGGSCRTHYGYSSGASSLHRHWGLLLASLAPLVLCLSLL
Assay [8] concerns Mus musculus. The experiment in a line: Percent urinary recovery was measured in mice after subcutaneous administration at dose 20 mg/kg. Particulars: Urine. Also on record: dose 20 mg/kg. Format: functional, organism-based.
For the next assay, the species on record is Oryctolagus cuniculus. The experiment in a line: Susceptibility relative to meropenem was measured against rabbit DHP-1.
A further assay has as its system Cercopithecidae. Briefly: Susceptibility relative to meropenem was measured against monkey DHP-1.

The term MIC denotes the smallest concentration in the dilution series that meets the test's criterion for growth inhibition.

In brackets after ≈: the same amount, converted by molar mass.

Dipeptidase 1 (Rattus norvegicus), sequence (P31430 whole entry, looked up): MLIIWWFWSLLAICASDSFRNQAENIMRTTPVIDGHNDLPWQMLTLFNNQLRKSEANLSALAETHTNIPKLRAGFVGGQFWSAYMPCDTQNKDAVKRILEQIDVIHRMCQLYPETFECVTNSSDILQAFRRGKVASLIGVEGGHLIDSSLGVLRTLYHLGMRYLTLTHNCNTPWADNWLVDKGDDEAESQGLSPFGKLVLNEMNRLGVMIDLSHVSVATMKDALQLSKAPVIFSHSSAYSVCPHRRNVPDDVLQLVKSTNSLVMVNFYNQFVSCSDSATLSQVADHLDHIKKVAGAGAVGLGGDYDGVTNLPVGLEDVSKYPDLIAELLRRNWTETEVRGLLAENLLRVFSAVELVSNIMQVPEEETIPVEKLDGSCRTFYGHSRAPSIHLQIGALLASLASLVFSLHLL

For `C/C(=C\[C@@H]1CCCN1)C1=C(C(=O)O)N2C(=O)[C@H]([C@@H](C)O)[C@H]2C1`, the Susceptibility came out at 0.036 in assay [1]; 0.249 in assay [2]; 0.11 in [4]; 0.45 in the assay listed under Mus musculus [5]; 0.45 in assay [7]; 0.015 in the assay listed under Oryctolagus cuniculus. In addition, the Susceptibility with Cercopithecidae came to 0.032. Also, the MIC in the assay with Pseudomonas aeruginosa was 3.13 µg/mL (≈ 10.2 µM); against Escherichia coli, 0.39 µg/mL (≈ 1.27 µM); against Proteus vulgaris it was 1.56 µg/mL (≈ 5.09 µM); against Staphylococcus aureus [3], 50 µg/mL (≈ 163 µM); with Staphylococcus aureus [6] it was less than 0.025 µg/mL. In the assay with Mus musculus [8], this compound had a Recovery of 67.8%.
As to `C[C@@H](O)[C@H]1C(=O)N2C(C(=O)O)=C(SCCNC=N)C[C@H]12.O` [IMIPENEM], the Susceptibility in assay [1] was found to be 1. In addition, the MIC was 0.78 µg/mL with Pseudomonas aeruginosa; 0.78 µg/mL in the assay with Escherichia coli; 3.13 µg/mL against Proteus vulgaris; 100 µg/mL with Staphylococcus aureus [3]; less than 0.025 µg/mL in the assay on Staphylococcus aureus [6]. This compound gave a Recovery in the assay with Mus musculus [8] of 28.9%.
In [1], `CSC/C(=C\[C@@H]1CCCN1)C1=C(C(=O)O)N2C(=O)[C@H]([C@@H](C)O)[C@H]2C1` displayed a Susceptibility of less than 0.006. In addition, the minimal inhibitory concentration (MIC) in the assay with Pseudomonas aeruginosa stood at 25 µg/mL (≈ 70.9 µM); with Escherichia coli it was 0.78 µg/mL (≈ 2.21 µM); in the assay with Proteus vulgaris, 3.13 µg/mL (≈ 8.88 µM); against Staphylococcus aureus [3], 100 µg/mL (≈ 284 µM); against Staphylococcus aureus [6], 0.1 µg/mL (≈ 0.284 µM). The Recovery with Mus musculus [8] turned out to be 54.3%.
`C[C@@H](O)[C@H]1C(=O)N2C(C(=O)O)=C(/C=C/[C@@H]3CCCN3)C[C@H]12` had a Susceptibility in assay [1] of 0.22. Further, the minimal inhibitory concentration (MIC) against Pseudomonas aeruginosa is 3.13 µg/mL (≈ 10.7 µM); in the assay on Escherichia coli it was 1.56 µg/mL (≈ 5.34 µM); with Proteus vulgaris, 1.56 µg/mL (≈ 5.34 µM); in the assay with Staphylococcus aureus [3] it was more than 100 µg/mL; in the assay on Staphylococcus aureus [6], 0.1 µg/mL (≈ 0.342 µM). For the same compound, the Recovery with Mus musculus [8] turned out to be 20.2%.
The compound `C[C@@H](O)[C@H]1C(=O)N2C(C(=O)O)=C(/C(=C/[C@@H]3CCCN3)CN)C[C@H]12` returned a Susceptibility in assay [1] of 0.004. The minimal inhibitory concentration (MIC) in the assay on Pseudomonas aeruginosa is more than 100 µg/mL; in the assay with Escherichia coli, 100 µg/mL (≈ 311 µM); with Proteus vulgaris it was more than 100 µg/mL; with Staphylococcus aureus [3], more than 100 µg/mL; with Staphylococcus aureus [6], 0.78 µg/mL (≈ 2.43 µM). In the assay on Mus musculus [8], this compound came in with a Recovery of 52.1%.
For the compound `C[C@@H](O)[C@H]1C(=O)N2C(C(=O)O)=C(/C=C/[C@@H]3CCCN3)[C@H](C)[C@H]12`, the Susceptibility in assay [1] was found to be 0.043. In addition, the MIC against Pseudomonas aeruginosa was 3.13 µg/mL (≈ 10.2 µM); in the assay on Escherichia coli it was 0.78 µg/mL (≈ 2.55 µM); with Proteus vulgaris, 6.25 µg/mL (≈ 20.4 µM); against Staphylococcus aureus [3] it was 100 µg/mL (≈ 326 µM); against Staphylococcus aureus [6], less than 0.025 µg/mL. The Recovery with Mus musculus [8] is 60.7%.
In the case of `COC/C(=C\[C@@H]1CCCN1)C1=C(C(=O)O)N2C(=O)[C@H]([C@@H](C)O)[C@H]2C1`, in [1], the Susceptibility is less than 0.008. Besides, the minimal inhibitory concentration (MIC) in the assay with Pseudomonas aeruginosa was 25 µg/mL (≈ 74.3 µM); with Escherichia coli it was 0.78 µg/mL (≈ 2.32 µM); against Proteus vulgaris it was 50 µg/mL (≈ 149 µM); against Staphylococcus aureus [3], more than 100 µg/mL; against Staphylococcus aureus [6] it was 0.2 µg/mL (≈ 0.595 µM). The Recovery in the assay with Mus musculus [8] was found to be 64.4%.

For the origin of these results see ChEMBL document CHEMBL1152079, “Synthesis and biological evaluation of novel 2-vinyl carbapenems. Remarkable DHP-1 stability of 1-substituted analogs” (1996).
